Data from PubChem BioAssay AID248 (DTP/NCI, 2004).
Where “and” joins values, the source holds several entries; their conditions need not be identical. Equal entries are not always repeated. Toxic doses and inconclusive results are not listed. No stated cut-off is given here; in the data, active means T/C of 150% or more; inactive means T/C below 125%.

System: L1210 leukemia ip in BDF1 mice, survival T/C
Assay: NCI In Vivo Anticancer Drug Screen. Data for tumor model L1210 Leukemia (intraperitoneal) in B6D2F1 (BDF1) mice
Details: endpoint: mean survival time, higher = longer survival
Method in brief: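 Tumor cells were implanted, animals were treated, and survival was followed. The result divides the treated measurement by the vehicle-control measurement.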

[1] = dose: 25.0 mg/kg/injection, schedule: Q01DX009 (ip), vehicle: saline with Tween-80
[2] = dose: 50.0 mg/kg/injection, schedule: Q01DX009 (ip), vehicle: saline with Tween-80
[3] = dose: 100.0 mg/kg/injection, schedule: Q04DX003 (ip), vehicle: saline
[4] = dose: 200.0 mg/kg/injection, schedule: Q04DX003 (ip), vehicle: saline
[5] = dose: 100.0 mg/kg/injection, schedule: Q01DX009 (ip), vehicle: saline with Tween-80
[6] = dose: 100.0 mg/kg/injection, schedule: Q04DX003 (ip), vehicle: saline with Tween-80
[7] = dose: 200.0 mg/kg/injection, schedule: Q01DX009 (ip), vehicle: saline with Tween-80
[8] = dose: 200.0 mg/kg/injection, schedule: Q04DX003 (ip), vehicle: saline with Tween-80
[9] = dose: 400.0 mg/kg/injection, schedule: Q01DX009 (ip), vehicle: saline with Tween-80
[10] = dose: 400.0 mg/kg/injection, schedule: Q04DX003 (ip), vehicle: saline with Tween-80
[11] = dose: 75.0 mg/kg/injection, schedule: Q01DX001 (ip), vehicle: carboxymethylcellulose (CMC)
[12] = dose: 150.0 mg/kg/injection, schedule: Q01DX001 (ip), vehicle: carboxymethylcellulose (CMC)
[13] = dose: 50.0 mg/kg/injection, schedule: Q01DX009 (ip), vehicle: saline
[14] = dose: 100.0 mg/kg/injection, schedule: Q01DX009 (ip), vehicle: saline
[15] = dose: 200.0 mg/kg/injection, schedule: Q01DX009 (ip), vehicle: saline
[16] = dose: 100.0 mg/kg/injection, schedule: Q04DX002 (ip), vehicle: Klucel (hydroxypropylcellulose) (HPC)
[17] = dose: 200.0 mg/kg/injection, schedule: Q04DX002 (ip), vehicle: Klucel (hydroxypropylcellulose) (HPC)
[18] = dose: 400.0 mg/kg/injection, schedule: Q04DX002 (ip), vehicle: Klucel (hydroxypropylcellulose) (HPC)
[19] = dose: 100.0 mg/kg/injection, schedule: Q01DX001 (ip), vehicle: carboxymethylcellulose (CMC)
[20] = dose: 200.0 mg/kg/injection, schedule: Q01DX001 (ip), vehicle: carboxymethylcellulose (CMC)
[21] = dose: 400.0 mg/kg/injection, schedule: Q01DX001 (ip), vehicle: carboxymethylcellulose (CMC)
[22] = dose: 100.0 mg/kg/injection, schedule: Q01DX009 (ip), vehicle: Klucel (hydroxypropylcellulose) (HPC)
[23] = dose: 200.0 mg/kg/injection, schedule: Q01DX009 (ip), vehicle: Klucel (hydroxypropylcellulose) (HPC)
[24] = dose: 12.0 mg/kg/injection, schedule: Q01DX001 (ip), vehicle: saline
[25] = dose: 25.0 mg/kg/injection, schedule: Q01DX001 (ip), vehicle: saline
[26] = dose: 100.0 mg/kg/injection, schedule: Q01DX001 (ip), vehicle: saline
[27] = dose: 200.0 mg/kg/injection, schedule: Q01DX001 (ip), vehicle: saline
[28] = dose: 400.0 mg/kg/injection, schedule: Q01DX001 (ip), vehicle: saline
[29] = dose: 100.0 mg/kg/injection, schedule: Q04DX002 (ip), vehicle: saline with Tween-80
[30] = dose: 200.0 mg/kg/injection, schedule: Q04DX002 (ip), vehicle: saline with Tween-80
[31] = dose: 100.0 mg/kg/injection, schedule: Q01DX001 (ip), vehicle: saline with Tween-80
[32] = dose: 200.0 mg/kg/injection, schedule: Q01DX001 (ip), vehicle: saline with Tween-80

Measured: T/C

CCCCC(I)C(C)(C)[n+]1ccccc1 (configuration not stated)
inactive: dose: 12.5 mg/kg/injection, schedule: Q01DX009 (ip), vehicle: saline with Tween-80 119 % of control | dose: 12.5 mg/kg/injection, schedule: Q04DX003 (ip), vehicle: saline with Tween-80 100 % of control | [1] 106 % of control | dose: 25.0 mg/kg/injection, schedule: Q04DX003 (ip), vehicle: saline with Tween-80 96 % of control | [2] 101 % of control | dose: 50.0 mg/kg/injection, schedule: Q04DX003 (ip), vehicle: saline with Tween-80 100 % of control

O=[N+]([O-])c1cc(Br)ccc1O
inactive: [3] 100 % of control | [4] 89 % of control

CCOc1ccc(Br)cc1C=O
inactive: [5] 97 % of control | [6] 97 % of control | [7] 91 % of control | [8] 97 % of control | [9] 91 % of control | [10] 101 % of control

Cc1ccc[n+]([O-])c1Cl
inactive: [3] 100 % of control | [4] 87 % of control

O=C(O)C1=CC2CC1C1CC(C(=O)O)CC21 (configuration not stated)
inactive: dose: 100.0 mg/kg/injection, schedule: Q01DX001 (ip), vehicle: Klucel (hydroxypropylcellulose) (HPC) 105 % of control | dose: 200.0 mg/kg/injection, schedule: Q01DX001 (ip), vehicle: Klucel (hydroxypropylcellulose) (HPC) 91 % of control | dose: 400.0 mg/kg/injection, schedule: Q01DX001 (ip), vehicle: Klucel (hydroxypropylcellulose) (HPC) 103 % of control

O=C(NC(=S)Nc1ccccc1)c1ccc([N+](=O)[O-])cc1
inactive: [11] 98 % of control | [12] 90 % of control | dose: 300.0 mg/kg/injection, schedule: Q01DX001 (ip), vehicle: carboxymethylcellulose (CMC) 101 % of control

NC(Cn1ccc(=O)c(O)c1)C(=O)O (configuration not stated)
inactive: [13] 105 % of control | dose: 75.0 mg/kg/injection, schedule: Q04DX003 (ip), vehicle: saline 103 % of control | [14] 102 % of control | [6] 95 % of control | dose: 111.0 mg/kg/injection, schedule: Q01DX Z (ip), vehicle: saline 92 % of control | dose: 150.0 mg/kg/injection, schedule: Q04DX003 (ip), vehicle: saline 92 % of control | dose: 178.0 mg/kg/injection, schedule: Q01DX Z (ip), vehicle: saline 95 % of control | [15] 102 % of control | [8] 94 % of control | dose: 267.0 mg/kg/injection, schedule: Q01DX Z (ip), vehicle: saline 108 % of control | dose: 300.0 mg/kg/injection, schedule: Q04DX003 (ip), vehicle: saline 90 % of control | dose: 400.0 mg/kg/injection, schedule: Q01DX Z (ip), vehicle: saline 93 % of control | [10] 100 % of control | dose: 800.0 mg/kg/injection, schedule: Q01DX009 (ip), vehicle: saline 111 % of control

Cc1cccc(NC(=O)C(Cl)(Cl)Cl)c1
inactive: [16] 109 % of control | [17] 98 % of control | [18] 98 % of control

c1nc(NCCc2cnc[nH]2)c2[nH]cnc2n1
inactive: [19] 95 % of control | [20] 90 % of control | [21] 97 % of control

C1=CCC2OC2C1 (configuration not stated)
inactive: dose: 100.0 mg/kg/injection, schedule: Q01DX001 (ip), vehicle: acetone 103 % of control | [22] 105 % of control | dose: 200.0 mg/kg/injection, schedule: Q01DX001 (ip), vehicle: acetone 95 % of control | [23] 103 % of control | dose: 400.0 mg/kg/injection, schedule: Q01DX001 (ip), vehicle: acetone 94 % of control

CC1CC(C)(C)N=C(c2cccc(Br)c2)O1 (configuration not stated)
inactive: [5] 103 % of control | [7] 103 % of control | [9] 92 % of control

C=CCC1CCCCC1
inactive: [19] 104 % of control | [20] 105 % of control | [21] 104 % of control

COc1c(OC2OC(CO)C(O)C(O)C2O)cc2c(c1OC)-c1ccc(SC)c(=O)cc1C(NC(C)=O)CC2 (configuration not stated)
inactive: dose: 6.0 mg/kg/injection, schedule: Q01DX009 (ip), vehicle: saline 97 % of control | [24] 98 % of control | dose: 12.0 mg/kg/injection, schedule: Q01DX009 (ip), vehicle: saline 98 % of control | [25] 100 % of control | dose: 25.0 mg/kg/injection, schedule: Q01DX009 (ip), vehicle: saline 101 % of control

C1OCC2CCC(CC2)CO1
inactive: [13] 95 % of control | [14] 98 % of control | [15] 97 % of control

CN(N)C(=O)Nc1ccccc1[N+](=O)[O-]
inactive: [11] 96 % of control | [12] 102 % of control

CC(=O)C(=O)O
inactive: [26] 110 % of control | [27] 95 % of control | [28] 87 % of control

COc1cccc(C2NC(=O)CCC2N)c1OC (configuration not stated)
inactive: [29] 105 % of control | [30] 102 % of control | dose: 400.0 mg/kg/injection, schedule: Q04DX002 (ip), vehicle: saline with Tween-80 97 % of control

COc1ccc(OC)c(NC(=O)c2ccc(F)cc2)c1
inactive: [22] 98 % of control | [23] 107 % of control | dose: 400.0 mg/kg/injection, schedule: Q01DX009 (ip), vehicle: Klucel (hydroxypropylcellulose) (HPC) 96 % of control

CCCCCCCCCCCC(=O)Nc1ccc(C(C)C)cc1
inactive: [31] 102 % of control | [32] 87 % of control | dose: 400.0 mg/kg/injection, schedule: Q01DX001 (ip), vehicle: saline with Tween-80 92 % of control

CCCCCCC(O)CCCCCCCCCCC(=O)O (configuration not stated)
inactive: [5] 106 % of control | [7] 93 % of control | [9] 88 % of control

CCOCc1c(COc2ccc(Br)cc2)n(C)c2ccccc12
inactive: [1] 100 % of control | [2] 89 % of control and 90 % of control | [5] 90 % of control | [7] 99 % of control

C=C(C)CC1(CC2SCCCS2)SCCCS1
inactive: dose: 25.0 mg/kg/injection, schedule: Q04DX002 (ip), vehicle: saline with Tween-80 98 % of control | dose: 50.0 mg/kg/injection, schedule: Q04DX002 (ip), vehicle: saline with Tween-80 106 % of control | [29] 88 % of control | [30] 98 % of control

C(=N/N=C(/C(=N/N=C/c1ccccc1)c1ccccc1)c1ccccc1)\c1ccccc1
inactive: [26] 94 % of control | [27] 95 % of control | [28] 97 % of control

OC1(c2ccccc2)CC2CCCCC2c2ccccc21 (configuration not stated)
inactive: [24] 98 % of control | [25] 100 % of control | dose: 50.0 mg/kg/injection, schedule: Q01DX001 (ip), vehicle: saline 102 % of control

CC(C)C12CCC(=O)C=C1CCCC2OC(=O)c1ccccc1C(=O)O (configuration not stated)
inactive: [6] 101 % of control | [8] 100 % of control

CC1(N(O)C(=O)NC2CCCCC2)CCCCC1
inactive: [31] 101 % of control | [32] 97 % of control

CCOC(=O)NC(NC(=O)OCC)C(Cl)Cl
inactive: [26] 101 % of control | [27] 103 % of control | [28] 103 % of control

COc1ccc(C(=O)/C=C2\C(=O)Nc3ccc(Br)cc32)cc1
inactive: [16] 107 % of control | [17] 100 % of control | [18] 93 % of control
